Assay results as given in patent US9023789B2, “Amylin analogs and pharmaceutical compositions thereof” (Novo Nordisk A/S, priority 2012, dated 2015).
Numbered stars: 1 amine (or outer) side, 2 acyl side, 3 side chain; on linkers, the order of the positions; unused ones are H or OH. Bridge positions count the residues as written; N and C are the ends. Side chains are listed from the residue outwards. Peptide text beside a SMILES is read from it. * marks the point of attachment. C20 diacid = O=C(O)CCCCCCCCCCCCCCCCCCC(=O)*; γGlu = O=C(O)[C@H](CCC(=O)[*:2])N[*:1]; AEEA = NCCOCCOCC(=O)O

Columns and labels:
[1] = molecular target: T1, rat amylin receptor (rat calcitonin receptor + rat RAMP 3) (Rattus norvegicus, UniProt P32214+Q9JJ73); experiment: ASSAY (VI) binding to the rat amylin receptor; details: for IC50: binding to rat amylin receptor, read-out: rAmylin-R bind IC50
T1 construct: expressed in transfected cells; host or cells: BHK tk'ts 13 (transient, FuGENE 6), membranes
T1 sequence (P32214 25-479 isoform P32214-2 limits assumed): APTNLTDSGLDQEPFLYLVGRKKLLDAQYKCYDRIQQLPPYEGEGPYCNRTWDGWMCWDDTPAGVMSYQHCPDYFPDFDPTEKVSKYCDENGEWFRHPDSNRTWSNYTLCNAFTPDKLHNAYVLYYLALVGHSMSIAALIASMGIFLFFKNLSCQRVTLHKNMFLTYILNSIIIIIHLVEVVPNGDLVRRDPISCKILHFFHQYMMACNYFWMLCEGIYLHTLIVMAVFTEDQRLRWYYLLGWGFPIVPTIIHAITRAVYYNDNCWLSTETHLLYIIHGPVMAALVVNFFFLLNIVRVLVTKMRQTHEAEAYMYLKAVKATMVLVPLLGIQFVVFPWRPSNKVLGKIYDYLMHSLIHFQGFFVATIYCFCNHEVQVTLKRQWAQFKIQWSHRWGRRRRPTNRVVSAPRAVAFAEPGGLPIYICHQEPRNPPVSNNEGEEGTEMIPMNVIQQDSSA
T1 sequence (Q9JJ73 23-147 partner): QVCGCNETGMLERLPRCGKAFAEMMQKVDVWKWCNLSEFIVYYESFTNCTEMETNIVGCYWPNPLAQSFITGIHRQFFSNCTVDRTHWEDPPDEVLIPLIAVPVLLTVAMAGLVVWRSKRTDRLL
Summary of the method: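 The cell-membrane assay assessed binding at the rat amylin receptor. BHK tk′ts 13 cells were transfected transiently with rat calcitonin receptor, with FuGENE® 6 (Roche) as the transfection reagent, used per the manufacturer's recommendations. Approximately 48 hours after transfection the cells were harvested, and membranes were prepared for measuring binding.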

[2] = ASSAY (III) ThT fibrillation assay for physical stability; format: physicochemical
Summary of the method: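 Physical stability scored by ThT fluorescence (444 nm excitation, 485 nm emission) tracked every 20 min during 37 °C incubation with 960 rpm shaking, ThT at 1 μM final. Values are replicate means with SD at chosen times; HPLC against pramlintide standard gives initial and post-assay soluble concentrations.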

[3] = Table 7, rat binding selectivity, rCTR IC50 / rAmylin-R IC50
[4] = Table 7a (preferred compounds), rat binding selectivity, rCTR IC50 / rAmylin-R IC50
[5] = ratio of rCTR bind IC50 to rAmylin-R bind IC50

Row | SMILES | IC50 ([1]; Table 7) [nM] | Ratio rCT/rAmylin binding [1, 3] | Ratio rCT/rAmylin binding [1, 4] | Ratio rCT/rAmylin binding [1, 5] | ThT pH 4.0 lag time (h) [2] [h]
1 | CC[C@H](C)[C@H](NC(=O)[C@H](C)NC(=O)CNC(=O)[C@H](Cc1ccccc1)NC(=O)[C@H](CC(N)=O)NC(=O)[C@@H]1CCCN1C(=O)[C@H](CO)NC(=O)[C@H](CO)NC(=O)[C@H](Cc1c[nH]cn1)NC(=O)[C@H](CCCNC(=N)N)NC(=O)[C@H](CC(C)C)NC(=O)[C@H](Cc1ccccc1)NC(=O)[C@H](CCC(=O)O)NC(=O)[C@H](C)NC(=O)[C@H](CC(C)C)NC(=O)[C@H](CCCNC(=N)N)NC(=O)[C@H](CCC(N)=O)NC(=O)[C@@H](NC(=O)[C@H](C)NC(=O)[C@@H]1CSSC[C@H](NC(=O)[C@@H](N)CCCCNC(=O)CC[C@H](NC(=O)CC[C@H](NC(=O)CCCCCCCCCCCCCCCCCCC(=O)O)C(=O)O)C(=O)O)C(=O)N[C@@H](CC(N)=O)C(=O)N[C@@H]([C@@H](C)O)C(=O)N[C@@H](C)C(=O)N[C@@H]([C@@H](C)O)C(=O)N1)[C@@H](C)O)C(=O)N1CCC[C@H]1C(=O)N[C@@H](CO)C(=O)N[C@@H](CO)C(=O)N[C@H](C(=O)N[C@@H](CC(N)=O)C(=O)N[C@H](C(=O)NCC(=O)N[C@@H](CCCNC(=N)N)C(=O)N[C@@H](CC(N)=O)C(=O)N[C@H](C(=O)N[C@@H](Cc1ccc(O)cc1)C(N)=O)[C@@H](C)O)C(C)C)[C@@H](C)O [Example 88] (H-K([γGlu-γGlu-C20 diacid])CNTATCATQRLAEFLRHSSPNFGAIPSSTNVGRNTY-NH2; disulfide 2-7) | 2.31 | 84.9 | 84.9 | 84.9 | 45
2 | CC[C@H](C)[C@H](NC(=O)[C@H](C)NC(=O)CNC(=O)[C@H](Cc1ccccc1)NC(=O)[C@H](CC(N)=O)NC(=O)[C@@H]1CCCN1C(=O)[C@H](CO)NC(=O)[C@H](CO)NC(=O)[C@H](Cc1c[nH]cn1)NC(=O)[C@H](CCCNC(=N)N)NC(=O)[C@H](CC(C)C)NC(=O)[C@H](Cc1ccccc1)NC(=O)[C@H](CCC(=O)O)NC(=O)[C@H](C)NC(=O)[C@H](CC(C)C)NC(=O)[C@H](CCCNC(=N)N)NC(=O)[C@H](CCC(N)=O)NC(=O)[C@@H](NC(=O)[C@H](C)NC(=O)[C@@H]1CSSC[C@H](NC(=O)[C@@H](N)CCCCNC(=O)CC[C@H](NC(=O)CC[C@H](NC(=O)CCCCCCCCCCCCCCCCCCC(=O)O)C(=O)O)C(=O)O)C(=O)N[C@@H](CC(N)=O)C(=O)N[C@@H]([C@@H](C)O)C(=O)N[C@@H](C)C(=O)N[C@@H]([C@@H](C)O)C(=O)N1)[C@@H](C)O)C(=O)N1CCC[C@H]1C(=O)N[C@@H](CO)C(=O)N[C@@H](CO)C(=O)N[C@H](C(=O)N[C@@H](CC(N)=O)C(=O)N[C@H](C(=O)NCC(=O)N[C@@H](CO)C(=O)N[C@@H](CCCNC(=N)N)C(=O)N[C@H](C(=O)N[C@@H](Cc1ccc(O)cc1)C(N)=O)[C@@H](C)O)C(C)C)[C@@H](C)O [Example 89] (H-K([γGlu-γGlu-C20 diacid])CNTATCATQRLAEFLRHSSPNFGAIPSSTNVGSRTY-NH2; disulfide 2-7 (inferred); N-terminus assumed) | 2.37 | 48.8 | 48.8 | 48.8 | 43
3 | CC[C@H](C)[C@H](NC(=O)[C@H](C)NC(=O)CNC(=O)[C@H](Cc1ccccc1)NC(=O)[C@H](CC(N)=O)NC(=O)[C@@H]1CCCN1C(=O)[C@H](CO)NC(=O)[C@H](CO)NC(=O)[C@H](Cc1c[nH]cn1)NC(=O)[C@H](CCCNC(=N)N)NC(=O)[C@H](CC(C)C)NC(=O)[C@H](Cc1ccccc1)NC(=O)[C@H](C)NC(=O)[C@H](C)NC(=O)[C@H](CC(C)C)NC(=O)[C@H](CCCNC(=N)N)NC(=O)[C@H](CCC(N)=O)NC(=O)[C@@H](NC(=O)[C@H](C)NC(=O)[C@@H]1CSSC[C@H](NC(=O)[C@@H](N)CCCCNC(=O)CC[C@H](NC(=O)CCCCCCCCCCCCCCCCCCC(=O)O)C(=O)O)C(=O)N[C@@H](CC(N)=O)C(=O)N[C@@H]([C@@H](C)O)C(=O)N[C@@H](C)C(=O)N[C@@H]([C@@H](C)O)C(=O)N1)[C@@H](C)O)C(=O)N1CCC[C@H]1C(=O)N[C@@H](CO)C(=O)N[C@@H](CO)C(=O)N[C@H](C(=O)N[C@@H](CC(N)=O)C(=O)N[C@H](C(=O)NCC(=O)N1CCC[C@H]1C(=O)N[C@@H](CC(N)=O)C(=O)N[C@H](C(=O)N[C@@H](Cc1ccc(O)cc1)C(N)=O)[C@@H](C)O)C(C)C)[C@@H](C)O [Example 94] (H-K([γGlu-C20 diacid])CNTATCATQRLAAFLRHSSPNFGAIPSSTNVGPNTY-NH2; disulfide 2-7 (inferred)) | 0.397 | 280.1 | 280.1 | 280.1 | 10
4 | CC[C@H](C)[C@H](NC(=O)[C@H](C)NC(=O)CNC(=O)[C@H](Cc1ccccc1)NC(=O)[C@H](CC(N)=O)NC(=O)[C@@H]1CCCN1C(=O)[C@H](CO)NC(=O)[C@H](CO)NC(=O)[C@H](Cc1c[nH]cn1)NC(=O)[C@H](CCCNC(=N)N)NC(=O)[C@H](CC(C)C)NC(=O)[C@H](Cc1ccccc1)NC(=O)[C@H](CC(N)=O)NC(=O)[C@H](C)NC(=O)[C@H](CC(C)C)NC(=O)[C@H](CCCNC(=N)N)NC(=O)[C@H](CCC(N)=O)NC(=O)[C@@H](NC(=O)[C@H](C)NC(=O)[C@@H]1CSSC[C@H](NC(=O)[C@@H](N)CCCCNC(=O)COCCOCCNC(=O)COCCOCCNC(=O)CC[C@H](NC(=O)CCCCCCCCCCCCCCCCCCC(=O)O)C(=O)O)C(=O)N[C@@H](CC(N)=O)C(=O)N[C@@H]([C@@H](C)O)C(=O)N[C@@H](C)C(=O)N[C@@H]([C@@H](C)O)C(=O)N1)[C@@H](C)O)C(=O)N1CCC[C@H]1C(=O)N[C@@H](CO)C(=O)N[C@@H](CO)C(=O)N[C@H](C(=O)N[C@@H](CC(N)=O)C(=O)N[C@H](C(=O)NCC(=O)N[C@@H](CCCNC(=N)N)C(=O)N[C@@H](CC(N)=O)C(=O)N[C@H](C(=O)N[C@@H](Cc1ccc(O)cc1)C(N)=O)[C@@H](C)O)C(C)C)[C@@H](C)O [Example 95] (H-K([AEEA-AEEA-γGlu-C20 diacid])CNTATCATQRLANFLRHSSPNFGAIPSSTNVGRNTY-NH2; disulfide 2-7 (inferred); N-terminus assumed) | 5.45 | 71.3 | 71.3 | 71.3 | 37
5 | CC[C@H](C)[C@H](NC(=O)[C@H](C)NC(=O)CNC(=O)[C@H](Cc1ccccc1)NC(=O)[C@H](CC(N)=O)NC(=O)[C@@H]1CCCN1C(=O)[C@H](CO)NC(=O)[C@H](CO)NC(=O)[C@H](Cc1c[nH]cn1)NC(=O)[C@H](CCCNC(=N)N)NC(=O)[C@H](CC(C)C)NC(=O)[C@H](Cc1ccccc1)NC(=O)[C@H](C)NC(=O)[C@H](C)NC(=O)[C@H](CC(C)C)NC(=O)[C@H](CCCNC(=N)N)NC(=O)[C@H](CCC(N)=O)NC(=O)[C@@H](NC(=O)[C@H](C)NC(=O)[C@@H]1CSSC[C@H](NC(=O)[C@H](CCCNC(=N)N)NC(=O)CNC(=O)CC[C@H](NC(=O)CCCCCCCCCCCCCCCCCCC(=O)O)C(=O)O)C(=O)N[C@@H](CC(N)=O)C(=O)N[C@@H]([C@@H](C)O)C(=O)N[C@@H](C)C(=O)N[C@@H]([C@@H](C)O)C(=O)N1)[C@@H](C)O)C(=O)N1CCC[C@H]1C(=O)N[C@@H](CO)C(=O)N[C@@H](CO)C(=O)N[C@H](C(=O)N[C@@H](CC(N)=O)C(=O)N[C@H](C(=O)NCC(=O)N[C@@H](Cc1c[nH]cn1)C(=O)N[C@@H](CC(N)=O)C(=O)N[C@H](C(=O)N[C@@H](Cc1ccc(O)cc1)C(N)=O)[C@@H](C)O)C(C)C)[C@@H](C)O [Example 101] ({C20 diacid-γGlu}-GRCNTATCATQRLAAFLRHSSPNFGAIPSSTNVGHNTY-NH2; disulfide 3-8) | 8.07 | 60.9 | 60.9 | 60.9 | 45
